Test systems include SK-OV-3 ovarian; SW-620 colon; SNB-19 CNS; OVCAR-5 ovarian; MOLT-4 leukemia; SK-MEL-28 melanoma; MALME-3M melanoma; NCI-H23 lung; TK-10 renal; OVCAR-3 ovarian.
Holding throughout (experiment): inhibition of tumour cell growth, NCI panel, 48 h

The results in this text go back to PubChem BioAssay (NCI).

The structures appear in SMILES notation.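 Protocol summary: plate cells (96-well), add compound at 5 concentrations, incubate 48 h, interpolate endpoints linearly. GI50 is the concentration that inhibits growth by half. TGI marks complete inhibition of growth.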 Bounds are passed on as bounds.

As for `C=C[C@@H]1CCC/C=C/[C@@H]2C[C@H](O)C[C@H]2[C@H](O)/C=C/C(=O)O1`, the GI50 in the experiment with SK-OV-3 ovarian was 0.709 µM; in the experiment on SW-620 colon, 0.361 µM; with SNB-19 CNS, 1.45 µM; in the experiment on OVCAR-5 ovarian, 0.664 µM; in the experiment on MOLT-4 leukemia it was 1.16 µM; in the experiment with SK-MEL-28 melanoma, 0.34 µM. In addition, the GI50 was 0.274 µM with MALME-3M melanoma, 0.475 µM in the experiment with NCI-H23 lung, 0.554 µM with TK-10 renal and 0.427 µM in the experiment with OVCAR-3 ovarian. The TGI with SK-OV-3 ovarian was above 100 µM; with SW-620 colon it was 1.57 µM; in the experiment on SNB-19 CNS, above 100 µM; in the experiment with OVCAR-5 ovarian, above 100 µM; with MOLT-4 leukemia, above 31.4 µM; in the experiment with SK-MEL-28 melanoma, 1.2 µM. Besides, the TGI with MALME-3M melanoma turned out to be 1.06 µM; in the experiment on NCI-H23 lung it was 16.6 µM; in the experiment on TK-10 renal it was 19.8 µM; in the experiment with OVCAR-3 ovarian, 4.18 µM.
Regarding `CCCCNC(=O)Oc1ccc(/C(=C(\C)c2ccc(OC)cc2)c2ccc(OCCN3CCCCC3)cc2)cc1`, the GI50 in the experiment on SK-OV-3 ovarian is 7.63 µM; with SW-620 colon, 2.45 µM; in the experiment on SNB-19 CNS, 3.95 µM; in the experiment with OVCAR-5 ovarian, 7.27 µM; in the experiment with MOLT-4 leukemia, 3.12 µM; in the experiment with SK-MEL-28 melanoma, 1.75 µM. Further, the GI50 with MALME-3M melanoma is 1.74 µM; in the experiment with NCI-H23 lung, 4.06 µM; in the experiment with TK-10 renal, 9.41 µM; in the experiment on OVCAR-3 ovarian, 2.09 µM. For the same molecule, the TGI was determined as 25 µM in the experiment with SK-OV-3 ovarian; 6.15 µM with SW-620 colon; 15.2 µM with SNB-19 CNS; 23.2 µM with OVCAR-5 ovarian; 71.9 µM in the experiment with MOLT-4 leukemia; 3.4 µM in the experiment on SK-MEL-28 melanoma. In addition, the TGI with MALME-3M melanoma is 3.31 µM; in the experiment on NCI-H23 lung, 21.4 µM; with TK-10 renal, 23.3 µM; in the experiment with OVCAR-3 ovarian it was 4.51 µM.
`[Mn+3].[O-][Cl+3]([O-])([O-])O.[O-]c1ccccc1C=NCCN1CC1.[O-]c1ccccc1C=NCCN1CC1`: the GI50 is 35.2 µM in the experiment on SK-OV-3 ovarian; 17.1 µM in the experiment on SW-620 colon; 44.6 µM with SNB-19 CNS; 37.6 µM with OVCAR-5 ovarian; 5.57 µM with MOLT-4 leukemia; 35.8 µM in the experiment on SK-MEL-28 melanoma. Further, the GI50 in the experiment on MALME-3M melanoma was 19.7 µM; with NCI-H23 lung, 15.4 µM; in the experiment on TK-10 renal it was 50.7 µM; with OVCAR-3 ovarian, 19.6 µM. Besides, the TGI in the experiment with SK-OV-3 ovarian is above 100 µM; in the experiment with SW-620 colon it was above 100 µM; in the experiment with SNB-19 CNS it was above 100 µM; with OVCAR-5 ovarian, above 100 µM; with MOLT-4 leukemia, 25.4 µM; in the experiment on SK-MEL-28 melanoma it was above 100 µM. The TGI is 39.9 µM in the experiment with MALME-3M melanoma, 52.8 µM with NCI-H23 lung, above 100 µM in the experiment with TK-10 renal and 40.1 µM in the experiment on OVCAR-3 ovarian.
`O=c1cc(-c2ccccc2)oc2c(O)c(O)ccc12`: the GI50 in the experiment on SK-OV-3 ovarian was 23.8 µM; in the experiment with SW-620 colon it was 6.66 µM; in the experiment with SNB-19 CNS it was 16.8 µM; in the experiment with OVCAR-5 ovarian, 22 µM; in the experiment with MOLT-4 leukemia it was 5.09 µM; with SK-MEL-28 melanoma it was 11.4 µM. Also, the GI50 is 17.4 µM in the experiment with MALME-3M melanoma, 6.27 µM with NCI-H23 lung, 7.5 µM with TK-10 renal and 2.19 µM in the experiment with OVCAR-3 ovarian. In addition, the TGI in the experiment with SK-OV-3 ovarian, in the experiment on SW-620 colon, in the experiment with SNB-19 CNS, in the experiment on OVCAR-5 ovarian, in the experiment on MOLT-4 leukemia and with SK-MEL-28 melanoma was above 100 µM in each case. Moreover, the TGI in the experiment with MALME-3M melanoma was 60.2 µM; with NCI-H23 lung, above 100 µM; in the experiment with TK-10 renal, 71.1 µM; with OVCAR-3 ovarian it was 6.18 µM.
With `O=C1/C(=C/c2ccc(Cl)cc2)N=C(c2ccccc2)N1c1cc(C(F)(F)F)ccc1Cl`, the GI50 in the experiment with SK-OV-3 ovarian was 35.7 µM; with SW-620 colon, 28.9 µM; with SNB-19 CNS it was 36.4 µM; in the experiment with OVCAR-5 ovarian, 24.9 µM; with MOLT-4 leukemia, 15.5 µM; with SK-MEL-28 melanoma it was 39.1 µM. The GI50 in the experiment with MALME-3M melanoma was 27.7 µM; in the experiment with NCI-H23 lung it was 34.4 µM; with TK-10 renal it was 31.7 µM; in the experiment with OVCAR-3 ovarian, 17.4 µM. Besides, the TGI with SK-OV-3 ovarian was above 100 µM; in the experiment on SW-620 colon, above 100 µM; in the experiment on SNB-19 CNS, above 100 µM; in the experiment on OVCAR-5 ovarian it was 64.2 µM; in the experiment on MOLT-4 leukemia it was 51.2 µM; with SK-MEL-28 melanoma it was above 100 µM. For the same molecule, the TGI in the experiment with MALME-3M melanoma was 86.5 µM; in the experiment on NCI-H23 lung, above 100 µM; in the experiment with TK-10 renal, above 100 µM; with OVCAR-3 ovarian, 69 µM.
Consider `COc1ccc(-c2oc3ncnc(N)c3c2-c2ccc(NC(=O)Nc3cc(C(F)(F)F)ccc3F)cc2)cc1`, for which the GI50 was 0.894 µM in the experiment with SK-OV-3 ovarian; 0.952 µM in the experiment with SW-620 colon; 1.61 µM in the experiment with SNB-19 CNS; 3.15 µM with OVCAR-5 ovarian; 1.64 µM in the experiment with MOLT-4 leukemia; 1.94 µM with SK-MEL-28 melanoma. The GI50 in the experiment with MALME-3M melanoma is 1.81 µM; with NCI-H23 lung, 0.823 µM; in the experiment on TK-10 renal, 0.67 µM; with OVCAR-3 ovarian, 1.3 µM. Moreover, the TGI was 5.09 µM with SK-OV-3 ovarian; 3.58 µM in the experiment with SW-620 colon; 12.2 µM in the experiment with SNB-19 CNS; 8.82 µM in the experiment on OVCAR-5 ovarian; 8.98 µM in the experiment on MOLT-4 leukemia; 5.26 µM in the experiment on SK-MEL-28 melanoma. Also, the TGI in the experiment on MALME-3M melanoma came out at 6.22 µM; with NCI-H23 lung, 3.26 µM; with TK-10 renal, 3.37 µM; in the experiment on OVCAR-3 ovarian, 4.32 µM.
For the molecule `COc1ccc(-c2c(NC(=O)Nc3ccc(Cl)c(C(F)(F)F)c3)cnn2-c2ccc(S(N)(=O)=O)cc2)cc1`, the GI50 in the experiment on SK-OV-3 ovarian was 3.69 µM; in the experiment with SW-620 colon, 3.86 µM; in the experiment with SNB-19 CNS it was 3.85 µM; in the experiment with OVCAR-5 ovarian it was 3.54 µM; with MOLT-4 leukemia it was 2.01 µM; with SK-MEL-28 melanoma it was 3.73 µM. In addition, the GI50 in the experiment on MALME-3M melanoma is 2.51 µM; with NCI-H23 lung, 3.14 µM; in the experiment with TK-10 renal, 3.85 µM; in the experiment with OVCAR-3 ovarian, 2.4 µM. In addition, the TGI in the experiment on SK-OV-3 ovarian was determined as 14 µM; with SW-620 colon it was 13.8 µM; in the experiment with SNB-19 CNS, 14.7 µM; in the experiment with OVCAR-5 ovarian, 14.4 µM; in the experiment on MOLT-4 leukemia, 5.97 µM; in the experiment on SK-MEL-28 melanoma, 13.7 µM. For the same molecule, the TGI in the experiment on MALME-3M melanoma was found to be 7.72 µM; with NCI-H23 lung, 12.4 µM; in the experiment with TK-10 renal, 15.3 µM; with OVCAR-3 ovarian, 6.53 µM.
